Source: publication PMC3608737, “Odorant Metabolism Catalyzed by Olfactory Mucosal Enzymes Influences Peripheral Olfactory Responses in Rats” (PLoS ONE, 2013)

How the values were obtained:
olfactory epithelium [1] = details: for EOG amplitude compared with parent compound (coumarin or 4-MC): 1, 10 and 100 µM, normalized to IBMX; for EOG amplitude compared with parent compound (coumarin or 4-MC) / EOG response compared with quinoline: vehicle 0.01% DMSO; for EOG response compared with quinoline: 100 µM, normalized to IBMX responses
Procedure: Odorant stock solutions (1 M) were prepared in DMSO. Working solutions were prepared extemporaneously by diluting stock solutions with the Ringer solution. […] The IBMX stock solution (10 mM) was also prepared in DMSO. This stock solution was diluted 100-fold with the Ringer solution to produce a working solution (100 µM) containing 0.1% DMSO.
To assess sensory responses induced by odorant stimulation of the olfactory mucosa, we recorded EOGs. […] Rats were sacrificed by CO2 exposure and decapitated. The head was hemisected and the nasal septum was carefully removed to expose the endoturbinate system of the main olfactory system. The tissue was then superfused continuously (5 mL/min) at room temperature (22–25°C) with modified Ringer buffer containing 140 mM NaCl, 5 mM KCl, 2 mM CaCl2, 2 mM MgCl2, 10 mM HEPES [4-(2-hydroxyethyl)-1-piperazineethanesulfonic acid], adjusted to pH 7.2 and to 320 mOsm.L^−1 with glucose. Odorant stimuli were applied to the turbinates using a custom-built odorant delivery system consisting of a Rheodyne six-port injection valve equipped with a 200-µL loop. This valve injects odorant into the continuous stream of the Ringer solution. The distal part of the delivery system was fixed to a micromanipulator and adjusted to produce uniform flow in the vicinity of the recording electrode. The recording electrode was an Ag/AgCl wire positioned in a disposable pipette tip filled with a conductive gel (WPI, Sarasota, USA). The reference electrode was an 8-mm diameter Ag/AgCl disk covered with conductive gel that was placed under the rat hemi-head. Electrical signals were amplified using an AC/DC differential amplifier (A-M Systems, model 3000, Phymep, Paris, France), run through a low-pass filter of 300 Hz, digitized at 100 Hz using a Digidata 1440A interface board (Axon Instruments, DIPSI Industrie, Châtillon, France) and acquired using Axoscope 10.2 software (Axon Instruments). The data were analyzed using Clampfit software (Axon Instruments). The peak amplitudes of EOG responses were measured at the maximum negative voltage deflection from baseline. The data were normalized by dividing the peak amplitude by the maximum amplitude elicited by 100 µM of IBMX, a phosphodiesterase inhibitor that activates the transduction pathway bypassing the receptor step.

carboxylesterases = assay: Inhibition of isoamyl acetate hydrolysis in the olfactory S9 fraction; assay type: biochemical, rat
Procedure: (§1) Animals were sacrificed by decapitation. […] The resulting pellet was resuspended in homogenization buffer. Hepatic subcellular fractions were prepared as described previously.
(§2) Reactions involving isoamyl acetate were carried out for 10 min and were terminated by heating at 80°C for 15 min. After centrifugation at 12000 g for 10 min, isoamyl acetate metabolism was assessed by quantifying the acetate in a sample volume of 100 µL using an acetic acid assay kit (Megazyme, Bray, Ireland).
(§3) Coumarin Quinoline Isoamyl acetate
(§4) Subcellular fraction olfactory hepatic olfactory/hepatic olfactory/hepatic
(§5) microsomes microsomes microsomes S9

CYPs [2] = assay: Inhibition of coumarin metabolite formation in olfactory microsomes; assay type: biochemical, rat; details: for IC50: substrate coumarin
Procedure: as §1, §3, §4, §5

CYPs [3] = assay: Inhibition of quinoline metabolism catalyzed by olfactory microsomes; assay type: biochemical, rat; details: for IC50: substrate quinoline
Procedure: as §1, §3, §4, §5

carboxylesterase = assay: Isoamyl acetate metabolism in S9 from OM superfused with inhibitor for 20 min; assay type: biochemical, rat; details: 400 µM, superfusion 20 min
Procedure: To investigate the functional role of the olfactory XMEs, we recorded odorant-induced EOG responses before and after applying two phase I enzyme inhibitors, ABT and BNPP. First, we confirmed that superfusion of OM with ABT or BNPP was sufficient to inhibit CYP and carboxylesterase activities, respectively. For this purpose, the in vitro metabolism of quinoline, coumarin and isoamyl acetate was measured. All steps were performed as described previously except that the microsomal or S9 fractions were prepared from OM that had been superfused with inhibitors for 20 min. Superfusion of the OM with 400 µM of ABT or BNPP decreased the metabolism of quinoline/coumarin or isoamyl acetate, respectively, by approximately 30 to 80% (Fig. S6).
as §2

olfactory epithelium [4] = assay: Effect of XME inhibitors on odorant-induced EOG responses; set-up: species or system rat
Procedure: Rats were sacrificed by CO2 exposure and decapitated. […] The data were analyzed using Clampfit software (Axon Instruments).
First, two series of odorant stimulations at 2-min intervals were performed with an 8-min recovery period between each series. Under control conditions, a 2-min interval is sufficient to recover normal response amplitude. Then, the inhibitor was diluted in the Ringer buffer (final concentration 400 µM) and applied to the olfactory turbinates at a rate of 2.5 mL/min for 20 min using the Rheodyne injection valve. The preparation was rinsed for 5 min with the Ringer buffer and the epithelium was stimulated by applying odorant using the same procedures as described above. EOG responses were recorded on endoturbinate IIb. IBMX was applied at the end of each measurement series for data normalization as described above. In addition to the peak maximum amplitude, the onset slope (10% to 90%) and the fast decay slope (90% to 40%) were measured and normalized to the corresponding EOG peak amplitude.

mammalian ORs = system: mammalian ORs; set-up: method as in PMID 19261596; details: approximately 460 mammalian ORs; cited from earlier work
[5] = In vitro metabolism of coumarin by hepatic microsomes (HPLC); assay type: in vitro ADME, rat; details: liver (hepatic microsomes) incubation
Procedure: as §1, §3, §4, §5

[6] = In vitro metabolism of coumarin by olfactory microsomes (HPLC); assay type: in vitro ADME, rat
Procedure: as §1, §3, §4, §5

CYP = assay: Quinoline/coumarin metabolism in microsomes from OM superfused with inhibitor for 20 min; assay type: biochemical, rat; details: 400 µM, superfusion 20 min
Procedure: Reactions were performed in triplicate at 37°C and were initiated by adding odorant to the mixtures after a 5-min pre-incubation period. […] Subsequently, the products were centrifuged at 12 000 g for 10 min. An aliquot of the supernatant (100 µl) was analyzed by reverse phase high performance liquid chromatography (HPLC) using a Waters HPLC system (Milford, MA, USA) equipped with a pump (model 600), an autosampler thermostat set at 10°C (model a717 plus), a photodiode array UV detector (model 996) and an Uptisphere C18-ODB column (5-µm particle size, 150×4.6 mm; Interchim, Montluçon, France). The effluent from the column was routed to an UV detector, which can scan wavelengths from 210 to 400 nm. […] The separation of coumarin and its metabolites was achieved using a solvent gradient program (at 0.6 mL/min) set at: 25% acetonitrile/75% formic acid (0.01% in water) for 10 min, a linear gradient to 80% acetonitrile for 20 min, hold at 80% acetonitrile for 10 min, and then return to the initial conditions.

[7] = inhibitor 400 µM for 20 min, endoturbinate IIb

In the case of `O=c1ccc2ccc(O)cc2o1` [7-OH-C, 7-hydroxycoumarin], the “EOG amplitude compared with parent compound (coumarin or 4-MC)” value (olfactory epithelium [1]) is reported as “significantly lower than those induced by their parent compounds”.
With `[O-][n+]1cccc2ccccc21` [Q-1-O, quinoline-1-oxide] the “EOG response compared with quinoline” value (olfactory epithelium [1]) was “half of that elicited by quinoline”.
With `Oc1cccc2cccnc12` [8-OH-Q, 8-hydroxyquinoline] the “EOG response compared with quinoline” value (olfactory epithelium [1]) was “half of that elicited by quinoline”.
With `O=[N+]([O-])c1ccc(OP(=O)(O)Oc2ccc([N+](=O)[O-])cc2)cc1` [BNPP, bis-p-nitro-phenylphosphate] the IC50 (carboxylesterases; olfactory S9 fraction) was 0.8 µM, the “effect on coumarin metabolism” value (CYPs [2]; data not shown) was “not affected” and the “effect on olfactory metabolism of quinoline” value (CYPs [3]; data not shown) was “not affected”. For the same compound, the “decrease of metabolism of isoamyl acetate after superfusion of the OM” value (carboxylesterase) was 30 to 80%, the “effect on EOG responses elicited by coumarin” value (olfactory epithelium [4]; BNPP treatment, stated in the discussion only) was “but not those elicited by quinoline and coumarin” and the “effect on onset and decay slopes of EOG recordings” value (olfactory epithelium [4]; inhibitor 400 µM for 20 min) was “did not modify”. The “increase of maximal EOG response amplitude to isoamyl acetate” value (olfactory epithelium [4]; [7]) was 30%.
For `Cc1cc(=O)oc2cc(O[C@@H]3O[C@H](C(=O)O)[C@@H](O)[C@H](O)[C@H]3O)ccc12` [4-MU-G, 4-methylumbelliferone-β-D-glucuronide], the “EOG amplitude compared with parent compound (coumarin or 4-MC)” value (olfactory epithelium [1]) was “did not elicit any measurable EOG response”.
For `CC(C)CCO` [isoamyl alcohol], the “EOG response amplitude, lower than that elicited by isoamyl acetate” value (olfactory epithelium [1]; at any concentration (1, 10, 100 µM)) was “approximately 60%”.
In the case of `CC(=O)O` [acetic acid], the “effect of repeated application on the OM” value (olfactory epithelium [1]) is reported as “caused tissue damage”.
In the case of `O=c1ccc2ccccc2o1` [coumarin], the “number of ORs activated” value (mammalian ORs) is listed as 20, the “rate of coumarin biotransformation” value [5] is listed as 0.2 nmol/min/mg protein and the “rate of coumarin biotransformation” value ([6]; OM (olfactory microsomes) incubation) is listed as 13.3 nmol/min/mg protein. The “rate of coumarin biotransformation, OM versus liver incubation” value ([6]; OM higher than liver) was 65 fold.
For `O=c1cc(O)c2ccccc2o1` [4-OH-C, 4-hydroxycoumarin], the “number of ORs activated” value (mammalian ORs) is listed as “only activated one OR” and the “EOG amplitude compared with parent compound (coumarin or 4-MC)” value (olfactory epithelium [1]) is listed as “significantly lower than those induced by their parent compounds”.
For `Nn1nnc2ccccc21` [ABT, 1-aminobenzotriazole], the “decrease of metabolism of quinoline/coumarin after superfusion of the OM” value (CYP) was 30 to 80%, the “effect on isoamyl acetate hydrolysis” value (carboxylesterases; data not shown) was “no effect” and the “inhibition of coumarin metabolite formation” value (CYPs [2]; inhibitor 400 µM) was “Ninety percent”. The IC50 (CYPs [2]; read-out: IC50 for inhibition of 3-hydroxycoumarin formation) was 41 µM, the IC50 (CYPs [2]; read-out: IC50 for inhibition of 6-hydroxycoumarin formation) was 52 µM and the IC50 (CYPs [2]; read-out: IC50 for inhibition of 7-hydroxycoumarin formation) was 19 µM. For the same compound, the “decrease of the metabolism of quinoline” value (CYPs [3]; inhibitor 400 µM) was “approximately 80%”, the IC50 (CYPs [3]; read-out: IC50 for inhibition of quinoline-1-oxide formation) was 134 µM and the IC50 (CYPs [3]; read-out: IC50 for inhibition of quinoline-5,6-epoxide formation) was 147 µM. The “effect on EOG responses to isoamyl acetate” value (olfactory epithelium [4]; ABT 400 µM for 20 min, endoturbinate IIb) was “did not affect”, the “effect on onset and decay slopes of EOG recordings” value (olfactory epithelium [4]; inhibitor 400 µM for 20 min) was “unaffected” and the “increase of maximum EOG amplitude elicited by coumarin” value (olfactory epithelium [4]; [7]) was 43%. The “increase of maximum EOG amplitude elicited by quinoline” value (olfactory epithelium [4]; [7]) was 32%.
For `Cc1cc(=O)oc2cc(O)ccc12` [4-MU, 4-methylumbelliferone], the “EOG amplitude compared with parent compound (coumarin or 4-MC)” value (olfactory epithelium [1]) was “significantly lower than those induced by their parent compounds”.
For `Cc1cc(=O)oc2ccccc12` [4-MC, 4-methyl-coumarin], the “EOG amplitude compared with parent compound (coumarin or 4-MC)” value (olfactory epithelium [1]) was “lower in amplitude than the responses to coumarin”.
